Experimental data: publication doi:10.1101/2023.11.24.568596v1 (biorxiv, 2023)
One block for each molecule: values may come before it.

Columns and labels:
Conditions in all cases: binder
[1] = target: p38a (Homo sapiens, UniProt Q16539)
[2] = target: GSK3B (Homo sapiens, UniProt P49841)
[3] = target: T1, MER (Homo sapiens, UniProt Q12866)
T1 sequence (Q12866 1-999): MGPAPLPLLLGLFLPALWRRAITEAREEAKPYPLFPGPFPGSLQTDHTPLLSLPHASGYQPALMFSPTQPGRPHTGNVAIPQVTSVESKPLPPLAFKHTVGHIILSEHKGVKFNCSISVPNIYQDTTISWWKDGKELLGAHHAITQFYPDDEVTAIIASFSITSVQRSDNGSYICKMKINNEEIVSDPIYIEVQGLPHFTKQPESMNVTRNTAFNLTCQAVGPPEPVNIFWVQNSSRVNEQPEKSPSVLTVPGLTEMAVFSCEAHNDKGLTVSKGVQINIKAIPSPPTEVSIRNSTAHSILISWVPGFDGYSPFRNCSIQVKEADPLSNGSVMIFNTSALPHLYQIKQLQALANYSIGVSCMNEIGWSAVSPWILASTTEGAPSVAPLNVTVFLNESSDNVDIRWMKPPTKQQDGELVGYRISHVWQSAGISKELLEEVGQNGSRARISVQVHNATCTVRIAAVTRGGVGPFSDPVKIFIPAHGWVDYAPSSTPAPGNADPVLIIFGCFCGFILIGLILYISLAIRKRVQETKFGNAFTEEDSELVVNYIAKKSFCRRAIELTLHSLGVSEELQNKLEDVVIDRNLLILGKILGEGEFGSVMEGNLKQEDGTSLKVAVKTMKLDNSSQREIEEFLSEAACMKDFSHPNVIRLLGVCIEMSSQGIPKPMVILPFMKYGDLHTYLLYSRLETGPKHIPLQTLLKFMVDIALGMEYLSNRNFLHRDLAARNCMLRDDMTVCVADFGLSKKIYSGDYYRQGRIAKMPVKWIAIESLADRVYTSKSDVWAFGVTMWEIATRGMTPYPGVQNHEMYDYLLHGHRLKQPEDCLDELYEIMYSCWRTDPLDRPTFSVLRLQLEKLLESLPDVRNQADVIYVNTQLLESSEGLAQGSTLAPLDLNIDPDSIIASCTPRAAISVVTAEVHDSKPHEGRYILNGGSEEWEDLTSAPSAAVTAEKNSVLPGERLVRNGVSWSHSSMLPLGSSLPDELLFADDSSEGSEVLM

[4] = target: EphA4 (Homo sapiens, UniProt P54764)
[5] = target: T2, EphB3 (Homo sapiens, UniProt P54753)
T2 sequence (P54753 1-998): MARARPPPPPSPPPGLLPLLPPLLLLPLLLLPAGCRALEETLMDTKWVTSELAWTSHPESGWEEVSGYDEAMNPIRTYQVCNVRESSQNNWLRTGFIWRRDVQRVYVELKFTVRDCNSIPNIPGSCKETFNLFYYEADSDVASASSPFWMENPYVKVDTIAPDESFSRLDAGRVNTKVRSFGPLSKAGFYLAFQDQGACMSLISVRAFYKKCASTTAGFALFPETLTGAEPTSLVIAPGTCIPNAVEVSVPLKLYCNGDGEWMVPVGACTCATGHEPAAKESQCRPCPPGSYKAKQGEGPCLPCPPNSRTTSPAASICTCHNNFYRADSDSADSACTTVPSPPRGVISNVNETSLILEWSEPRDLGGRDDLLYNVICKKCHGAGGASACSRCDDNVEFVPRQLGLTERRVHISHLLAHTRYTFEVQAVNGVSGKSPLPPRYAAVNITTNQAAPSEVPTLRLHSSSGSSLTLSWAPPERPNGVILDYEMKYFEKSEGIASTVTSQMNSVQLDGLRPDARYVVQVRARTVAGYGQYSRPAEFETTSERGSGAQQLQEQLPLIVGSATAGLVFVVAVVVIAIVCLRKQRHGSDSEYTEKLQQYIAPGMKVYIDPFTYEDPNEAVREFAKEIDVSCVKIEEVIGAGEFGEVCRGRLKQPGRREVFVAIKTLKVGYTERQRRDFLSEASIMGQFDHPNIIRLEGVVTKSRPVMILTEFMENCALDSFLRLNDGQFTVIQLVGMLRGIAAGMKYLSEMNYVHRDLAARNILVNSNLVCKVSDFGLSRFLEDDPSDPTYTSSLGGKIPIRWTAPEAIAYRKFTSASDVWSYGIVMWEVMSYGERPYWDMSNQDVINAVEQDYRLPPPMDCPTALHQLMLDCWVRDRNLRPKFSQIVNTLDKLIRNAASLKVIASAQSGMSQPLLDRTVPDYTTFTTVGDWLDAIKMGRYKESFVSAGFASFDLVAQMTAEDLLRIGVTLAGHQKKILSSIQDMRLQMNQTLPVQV

[6] = target: T3, MAP2K6 (Homo sapiens, UniProt P52564)
T3 sequence (P52564 1-334): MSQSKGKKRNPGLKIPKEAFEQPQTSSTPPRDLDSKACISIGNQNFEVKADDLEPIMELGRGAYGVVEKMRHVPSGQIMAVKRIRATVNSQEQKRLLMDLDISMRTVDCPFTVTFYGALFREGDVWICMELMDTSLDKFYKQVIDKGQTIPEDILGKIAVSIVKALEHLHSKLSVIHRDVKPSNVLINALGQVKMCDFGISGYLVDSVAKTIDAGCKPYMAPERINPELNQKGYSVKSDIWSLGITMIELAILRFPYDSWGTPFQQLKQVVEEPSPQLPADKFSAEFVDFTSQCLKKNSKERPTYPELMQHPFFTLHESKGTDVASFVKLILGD

Sequence of GSK3B (P49841 whole entry): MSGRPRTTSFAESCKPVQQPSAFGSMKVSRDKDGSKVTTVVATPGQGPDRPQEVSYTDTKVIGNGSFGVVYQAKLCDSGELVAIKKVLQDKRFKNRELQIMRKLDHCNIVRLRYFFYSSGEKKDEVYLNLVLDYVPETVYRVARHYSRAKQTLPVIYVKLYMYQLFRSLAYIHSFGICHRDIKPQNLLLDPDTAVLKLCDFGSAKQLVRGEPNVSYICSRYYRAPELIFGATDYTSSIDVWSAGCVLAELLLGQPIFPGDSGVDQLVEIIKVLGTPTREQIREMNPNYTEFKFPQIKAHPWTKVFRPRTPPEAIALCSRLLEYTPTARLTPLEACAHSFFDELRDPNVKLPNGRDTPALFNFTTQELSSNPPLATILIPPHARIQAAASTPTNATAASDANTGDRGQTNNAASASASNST
Sequence of EphA4 (P54764 whole entry): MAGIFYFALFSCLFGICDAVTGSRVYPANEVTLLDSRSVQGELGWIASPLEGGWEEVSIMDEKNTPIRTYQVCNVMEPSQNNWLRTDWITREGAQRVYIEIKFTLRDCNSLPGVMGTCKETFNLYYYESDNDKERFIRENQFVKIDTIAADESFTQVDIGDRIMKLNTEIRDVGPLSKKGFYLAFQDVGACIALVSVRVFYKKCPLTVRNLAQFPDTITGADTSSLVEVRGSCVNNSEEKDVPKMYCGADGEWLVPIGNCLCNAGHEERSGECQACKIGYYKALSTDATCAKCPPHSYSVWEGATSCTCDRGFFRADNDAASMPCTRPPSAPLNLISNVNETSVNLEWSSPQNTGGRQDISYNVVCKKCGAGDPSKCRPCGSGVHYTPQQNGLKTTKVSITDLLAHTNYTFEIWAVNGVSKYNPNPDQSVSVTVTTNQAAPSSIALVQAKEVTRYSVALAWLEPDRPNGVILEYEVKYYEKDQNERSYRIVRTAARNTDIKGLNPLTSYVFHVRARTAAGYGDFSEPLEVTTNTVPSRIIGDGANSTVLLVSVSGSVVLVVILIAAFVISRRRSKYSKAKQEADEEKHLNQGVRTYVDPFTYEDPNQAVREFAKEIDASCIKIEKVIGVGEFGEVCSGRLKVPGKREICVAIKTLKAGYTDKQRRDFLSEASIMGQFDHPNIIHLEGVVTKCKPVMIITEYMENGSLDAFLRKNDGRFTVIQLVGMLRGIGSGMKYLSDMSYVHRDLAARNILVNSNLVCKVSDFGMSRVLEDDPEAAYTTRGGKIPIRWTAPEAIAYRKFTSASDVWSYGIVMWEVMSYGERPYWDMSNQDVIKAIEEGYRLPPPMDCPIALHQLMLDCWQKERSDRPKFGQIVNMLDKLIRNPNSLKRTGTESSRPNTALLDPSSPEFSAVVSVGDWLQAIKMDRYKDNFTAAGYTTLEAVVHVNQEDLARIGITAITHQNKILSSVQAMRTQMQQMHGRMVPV
Sequence of p38a (Q16539 whole entry): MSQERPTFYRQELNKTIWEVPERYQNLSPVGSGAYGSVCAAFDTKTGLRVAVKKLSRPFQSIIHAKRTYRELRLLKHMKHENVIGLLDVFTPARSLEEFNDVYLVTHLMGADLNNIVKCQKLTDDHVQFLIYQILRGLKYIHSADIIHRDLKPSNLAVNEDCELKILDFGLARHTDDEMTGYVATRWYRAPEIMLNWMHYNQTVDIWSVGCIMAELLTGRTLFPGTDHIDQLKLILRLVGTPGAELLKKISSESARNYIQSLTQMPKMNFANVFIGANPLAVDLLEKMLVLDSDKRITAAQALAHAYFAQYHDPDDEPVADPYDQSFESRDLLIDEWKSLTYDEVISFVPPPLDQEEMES

Structure (SMILES): Cc1cccc(-c2ccc(-c3cc4cnc(NCCCN5CCCC5=O)nc4n(CCCCN)c3=O)c(Cl)c2)n1 [compound 27, MR30]
ΔTm MR30 (27) [1]: 3.6 °C | ΔTm MR30 (27) [2]: 1.9 °C | ΔTm MR30 (27) [3]: 0.7 °C | ΔTm MR30 (27) [4]: 2.0 °C | ΔTm MR30 (27) [5]: 2.3 °C | ΔTm MR30 (27) [6]: 4.1 °C

Structure (SMILES): Cc1cccc(-c2ccc(-c3cc4cnc(Nc5cc(C(F)(F)F)ccc5C)nc4n(CCCCN)c3=O)c(Cl)c2)n1 [compound 28, 8-(4-Aminobutyl)-6-(2-chloro-4-(6-methylpyridin-2-yl)phenyl)-2-((2-methyl-5-(trifluoromethyl)phenyl)amino)pyrido[2,3-d]pyrimidin-7(8H)-one]
ΔTm 28 [1]: 3.9 °C | ΔTm 28 [2]: 0.3 °C | ΔTm 28 [3]: 0.1 °C | ΔTm 28 [4]: 3.4 °C | ΔTm 28 [5]: 4.1 °C | ΔTm 28 [6]: 7.5 °C

Structure (SMILES): Cc1cccc(-c2ccc(-c3cc4cnc(NCCCN5CCNCC5)nc4n(CCCCN)c3=O)c(Cl)c2)n1 [compound 29, 8-(4-Aminobutyl)-6-(2-chloro-4-(6-methylpyridin-2-yl)phenyl)-2-((3-(piperazin-1-yl)propyl)amino)pyrido[2,3-d]pyrimidin-7(8H)-one]
ΔTm 29 [1]: 3.2 °C | ΔTm 29 [2]: 0.3 °C | ΔTm 29 [3]: 1.0 °C | ΔTm 29 [4]: 2.1 °C | ΔTm 29 [5]: 2.3 °C | ΔTm 29 [6]: 1.9 °C

Results, then the molecule that gave them:

ΔTm 30 [1]: 5.5 °C | ΔTm 30 [2]: 1.9 °C | ΔTm 30 [3]: 3.1 °C | ΔTm 30 [4]: 3.5 °C | ΔTm 30 [5]: 6.9 °C | ΔTm 30 [6]: 9.4 °C
Structure (SMILES): Cc1cccc(-c2ccc(-c3cc4cnc(Nc5ccc(CCCO)cc5)nc4n(CCCCN)c3=O)c(Cl)c2)n1 [compound 30, 8-(4-Aminobutyl)-6-(2-chloro-4-(6-methylpyridin-2-yl)phenyl)-2-((4-(3-hydroxypropyl)phenyl)amino)pyrido[2,3-d]pyrimidin-7(8H)-one]

ΔTm 31 [1]: 4.7 °C | ΔTm 31 [2]: 3.2 °C | ΔTm 31 [3]: 3.3 °C | ΔTm 31 [4]: 4.4 °C | ΔTm 31 [5]: 5.3 °C | ΔTm 31 [6]: 9.4 °C
Structure (SMILES): Cc1cccc(-c2ccc(-c3cc4cnc(Nc5ccc(O)cc5)nc4n(CCCCN)c3=O)c(Cl)c2)n1 [compound 31, 8-(4-Aminobutyl)-6-(2-chloro-4-(6-methylpyridin-2-yl)phenyl)-2-((4-hydroxyphenyl)amino) pyrido[2,3-d]pyrimidin-7(8H)-one]

ΔTm 32 [1]: 5.3 °C | ΔTm 32 [2]: 2.2 °C | ΔTm 32 [3]: 2.8 °C | ΔTm 32 [4]: 4.6 °C | ΔTm 32 [5]: 8.5 °C | ΔTm 32 [6]: 8.9 °C
Structure (SMILES): Cc1cccc(-c2ccc(-c3cc4cnc(Nc5ccc(C)c(O)c5)nc4n(CCCCN)c3=O)c(Cl)c2)n1 [compound 32, 8-(4-Aminobutyl)-6-(2-chloro-4-(6-methylpyridin-2-yl)phenyl)-2-((3-hydroxy-4-methylphenyl)amino)pyrido[2,3-d]pyrimidin-7(8H)-one]
